Non-standard residues stand in square brackets, D forms with d. Residues, ends and D or L forms follow the SMILES beside them. sY = N[C@@H](Cc1ccc(OS(=O)(=O)O)cc1)C(=O)O
Legend:
excised gastric tissues = assay: Stimulation of pepsinogen secretion from excised gastric tissues of guinea pigs; assay type: cell-based
[1] = test system: protein release from pancreas; assay: Bioassay in anesthetized dogs: protein release from pancreas (Lowry method); assay type: in vivo, mongrel dogs
Experimental: The synthetic hCCK-33 was concurrently subjected to the bioassay with synthetic hCCK-8 to determine the activity. The bioassay was carried out by measuring the blood flow in the pancreas capillary vessel and the protein release from pancreas using a group of four mongrel dogs anesthesized with pentobarbital. The blood flow in the pancreas capillary vessel was measured using a laser-Doppler perfusion monitor and the protein concentration in the pancreas was determined according to the method of O. H. Lowry, N. J. Rosebrough, A. L. Farr and R. J. Randall, J. Biol. Chem. 193, 265 (1951). Bolus injections of 1.0, 3.125, 6.25, 12.5, 25, 50, 100 and 200 picomoles per kg body weight of the synthetic hCCK-33 and CCK-8 were given through a femoral vein catheter each at an interval of 60 minutes. […] The increasing effect could be noted even with the lowest dose of 3.125 picomoles/kg and the highest effect was obtained with the dose of 200 picomoles/kg. The activity of the synthetic hCCK-33 was 92% of that of the synthetic CCK-8 on the molar basis in respect of the effects on the blood flow in the pancreas capillary vessel and the protein release from pancreas. […] Since the ratio of the activity of the unsulfated hCCK-33 to the activity of CCK-8, taken as unity on the molar basis, was 0.074 in the aforementioned assay with dogs, it was concluded that an important role is played by the sulfated sites in the molecules having influences on the in vivo activity of CCKs. FIG. 6 illustrates the increase in the protein release from pancreas of an anesthetized dog in response to these 3 kinds of CCK-peptides.

[2] = test system: gastric juice, pepsin release and pancreas secretion; assay: Gastric juice, pepsin release and pancreas secretion in living rats; assay type: in vivo; conditions: living samples of rats
[3] = test system: blood flow in the pancreas capillary vessel; assay: Bioassay in anesthetized dogs: blood flow in the pancreas capillary vessel (laser-Doppler perfusion monitor); assay type: in vivo, mongrel dogs
Experimental: The synthetic hCCK-33 was concurrently subjected to the bioassay with synthetic hCCK-8 to determine the activity. The bioassay was carried out by measuring the blood flow in the pancreas capillary vessel and the protein release from pancreas using a group of four mongrel dogs anesthesized with pentobarbital. The blood flow in the pancreas capillary vessel was measured using a laser-Doppler perfusion monitor and the protein concentration in the pancreas was determined according to the method of O. H. Lowry, N. J. Rosebrough, A. L. Farr and R. J. Randall, J. Biol. Chem. 193, 265 (1951). Bolus injections of 1.0, 3.125, 6.25, 12.5, 25, 50, 100 and 200 picomoles per kg body weight of the synthetic hCCK-33 and CCK-8 were given through a femoral vein catheter each at an interval of 60 minutes. […] The increasing effect could be noted even with the lowest dose of 3.125 picomoles/kg and the highest effect was obtained with the dose of 200 picomoles/kg. […] The color intensity by the ninhydrin reaction was determined using a Shimadzu Dual Wavelength TLC Scanner Model CS-900. […] The blood flow in pancreas capillary vessel was monitored using a laser-Doppler perfusion monitor (Model LD 5000 manufactured by Seattle Model Pacific Co., Wash., U.S.A.).

[4] = Activity compared with swine CCK-33 (test not specified); conditions: conclusion drawn through CCK-8
Experimental: Bolus injections of 1.0, 3.125, 6.25, 12.5, 25, 50, 100 and 200 picomoles per kg body weight of the synthetic hCCK-33 and CCK-8 were given through a femoral vein catheter each at an interval of 60 minutes. […] The increasing effect could be noted even with the lowest dose of 3.125 picomoles/kg and the highest effect was obtained with the dose of 200 picomoles/kg. The activity of the synthetic hCCK-33 was 92% of that of the synthetic CCK-8 on the molar basis in respect of the effects on the blood flow in the pancreas capillary vessel and the protein release from pancreas. […] Since the ratio of the activity of the unsulfated hCCK-33 to the activity of CCK-8, taken as unity on the molar basis, was 0.074 in the aforementioned assay with dogs, it was concluded that an important role is played by the sulfated sites in the molecules having influences on the in vivo activity of CCKs.

[5] = bolus injection through femoral vein catheter, 1.0-200 picomoles per kg
[6] = bolus injections 1.0-200 picomoles per kg

With `CC[C@H](C)[C@H](NC(=O)[C@H](CCCNC(=N)N)NC(=O)[C@H](Cc1c[nH]cn1)NC(=O)[C@H](CO)NC(=O)[C@@H]1CCCN1C(=O)[C@H](CC(=O)O)NC(=O)[C@H](CC(C)C)NC(=O)[C@H](CC(N)=O)NC(=O)[C@H](CCC(N)=O)NC(=O)[C@H](CC(C)C)NC(=O)[C@H](CC(N)=O)NC(=O)[C@H](CCCCN)NC(=O)[C@@H](NC(=O)[C@@H](NC(=O)[C@H](CO)NC(=O)[C@H](CCSC)NC(=O)[C@H](CCCNC(=N)N)NC(=O)CNC(=O)[C@H](CO)NC(=O)[C@@H]1CCCN1C(=O)[C@H](C)NC(=O)[C@@H](N)CCCCN)[C@@H](C)CC)C(C)C)C(=O)N[C@@H](CO)C(=O)N[C@@H](CC(=O)O)C(=O)N[C@@H](CCCNC(=N)N)C(=O)N[C@@H](CC(=O)O)C(=O)N[C@@H](Cc1ccc(OS(=O)(=O)O)cc1)C(=O)N[C@@H](CCSC)C(=O)NCC(=O)N[C@@H](Cc1c[nH]c2ccccc12)C(=O)N[C@@H](CCSC)C(=O)N[C@@H](CC(=O)O)C(=O)N[C@@H](Cc1ccccc1)C(N)=O` [synthetic hCCK-33] (H-KAPSGRMSIVKNLQNLDPSHRISDRD[sY]MGWMDF-NH2) the “activity relative to CCK-8 on the molar basis, stimulation of pepsinogen secretion” value (excised gastric tissues) was “about the same as the CCK-8”, the “dose giving the highest effect” value ([1]; bolus injection) was 200 picomoles/kg and the “lowest dose at which the increasing effect could be noted” value ([1]; bolus injection) was 3.125 picomoles/kg. The “activity relative to synthetic CCK-8 on the molar basis, protein release from pancreas” value [1, 5] was 92%, the “protein release from pancreas, dose dependence” value [1, 6] was “increased in parallel with the dose” and the “activity relative to CCK-8 on the molar basis, gastric juice, pepsin release and pancreas secretion” value [2] was “about two to three times more active than the CCK-8”. For the same compound, the “activity relative to synthetic CCK-8 on the molar basis, blood flow in the pancreas capillary vessel” value [3, 5] was 92%, the “pancreas blood flow, dose dependence” value [3, 6] was “increased in parallel with the dose” and the “activity compared with natural swine CCK-33” value [4] was “comparable with or even higher than”.

Source: US5059679A, “Method of selectively sulfating peptides” (Shin-Etsu CHemical Co., Ltd., priority 1988, dated 1991)
